Data from US8609419B2, “Method for inserting a nucleic acid of interest into a prokaryotic or eukaryotic cell by homologous recombination” (Centre National de la Recherche Scientifique, priority 2002, dated 2013).

Test system: Escherichia coli cell genome
Assay: Targeted insertion of lacZ::kan by homologous recombination from N-AcO-AAF-treated pCUL-lacZ::kan plasmid (white/total colonies)
Format: cell-based
Details: for Recombination frequency: white colonies/total colonies / Total number of colonies/number of recombined colonies: E. coli
Procedure: Reaction mixture • Plasmid DNA: Final concentration of 0.5 μg/μl in 2×10^−3 M citrate buffer, pH 7 • N-AcO-AAF: Final concentration of 400 μg/ml in ethanol.
60 μg DNA are added in 114 μl of 2×10^−3 M citrate buffer, pH7, added with 3 μl of ethanol at 100%.
The solution is preheated at 37° C.; then 3 μl of N-AcO-AAF (400 μg/ml) are added, marked with tritium (^3H).
Reaction time: 4, 8, 20 minutes.
40 μl are taken at the various selected times. The reaction is stopped by a DNA precipitation step with 3 volumes of ethanol/sodium acetate 0.16M followed by three other precipitation steps under the same conditions.
The percentage of modified bases is determined measuring the number of plasmid mols through UV spectrophotometry and the number of bound AAF mols, through βradioactivity counting.
The result is expressed in percentage of modified bases. The reaction time is adapted as a function of the size of the plasmid and the desired percentage of modified bases.
E. coli cells are transformed following the conventional electroporation method by using the conditions recommended by the device manufacturers to this end (Gene Pulser from Biorad for example).
In the example, transformant clones are selected on a LB-agar medium containing kanamycin (20 μg/ml) and the lack of β-galactosidase activity (being expressed by white colonies instead of blue ones), i.e. a phenotype typical of a non reciprocal recombination event is visualized by means of the presence of X-gal (5-bromo-4-chloro-3-indolyl-β-D-galactopyranoside) and IPTG (isopropyl-β-D-thiogalactopyranoside) in the dishes.

## CC(=O)ON(C(C)=O)c1ccc2c(c1)Cc1ccccc1-2 [N-AcO-AAF, N-acetoxy-2-acetylaminofluorene]
10 AAF injuries per plasmid
  Recombination frequency: white colonies/total colonies: 0.056
  Total number of colonies/number of recombined colonies: 17819/10
20 AAF injuries per plasmid
  Recombination frequency: white colonies/total colonies: 0.17
  Total number of colonies/number of recombined colonies: 9692/17
33 AAF injuries per plasmid
  Recombination frequency: white colonies/total colonies: 0.32
  Total number of colonies/number of recombined colonies: 2301975
43 AAF injuries per plasmid
  Recombination frequency: white colonies/total colonies: 1.41
  Total number of colonies/number of recombined colonies: 16554/237
67 AAF injuries on the plasmid, wild strain for recombination systems
  targeted recombinant molecules: more than 6%
67 AAF injuries per plasmid
  Recombination frequency: white colonies/total colonies: 6.07
  Total number of colonies/number of recombined colonies: 1934/125
67 AAF injuries versus spontaneous events
  increase in the recombination frequency: more than 1,700 fold
67 molecules of N-AcO-AAF per molecule of the DNA vector
  frequency of homologous recombination events: more than 600×10^−4
N-AcO-AAF bound onto the polynucleotide
  frequency of non reciprocal homologous recombination events from the DNA vector to the chromosome: higher than 0.05 homologous recombination events per transfected cell
Ten molecules of N-AcO-AAF per molecule of the DNA vector
  frequency of homologous recombination events: 5.61×10^−4
